The text below walks through data of patent US10294229B2, “Heteroaryl substituted aminopyridine compounds” (BRISTOL-MYERS SQUIBB COMPANY, priority 2015, dated 2019).

This experiment has as its target IRAK4 (Homo sapiens (Human), UniProt Q9NWZ3). The experiment is described as follows: IRAK4 Inhibition Assay. The experiment is classed as biochemical. Conditions: ATP 500 μM; IRAK4 0.6 nM. In a few lines:
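Readout: electrophoretic (LabChip) separation of fluorescent peptide substrate from phosphorylated product after EDTA quench. Reactions ran 60 min at room temperature with 0.6 nM IRAK4, 1.5 μM peptide and 500 μM ATP; inhibition referenced to no-enzyme (100%) and vehicle (0%) controls.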

A word on the IC50: it is the midpoint of a concentration-inhibition curve.

Chain of IRAK4 (Q9NWZ3 whole entry, species assumed): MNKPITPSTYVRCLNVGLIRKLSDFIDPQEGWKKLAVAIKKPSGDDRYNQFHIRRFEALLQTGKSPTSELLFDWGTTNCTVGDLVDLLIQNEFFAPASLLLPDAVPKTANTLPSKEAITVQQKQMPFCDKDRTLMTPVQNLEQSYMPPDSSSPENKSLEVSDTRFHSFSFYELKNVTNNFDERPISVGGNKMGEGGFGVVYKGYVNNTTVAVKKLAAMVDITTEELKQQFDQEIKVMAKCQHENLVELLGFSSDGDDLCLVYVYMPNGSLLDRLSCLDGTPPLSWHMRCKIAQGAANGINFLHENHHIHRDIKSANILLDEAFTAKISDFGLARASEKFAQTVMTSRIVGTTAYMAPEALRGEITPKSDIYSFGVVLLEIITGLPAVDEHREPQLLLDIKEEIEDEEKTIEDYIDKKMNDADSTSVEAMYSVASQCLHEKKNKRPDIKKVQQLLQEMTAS

Regarding `CC(O)Cc1cn(-c2cnc(-n3ncc4cc(C#N)cnc43)cc2NC2CC2)nn1` (single isomer, unassigned) [Example 274, 1-(4-(cyclopropylamino)-5-(4-(2-hydroxypropyl)-1H-1,2,3-triazol-1-yl)pyridin-2-yl)-1H-pyrazolo[3,4-b]pyridine-5-carbonitrile], the IC50 stood at 0.023 µM.

As to `CCn1cnc(-c2cnc(-n3ncc4cc(C#N)cnc43)cc2NC(C)C)c1` [Example 227, 1-(5-(1-ethyl-1H-imidazol-4-yl)-4-(isopropylamino)pyridin-2-yl)-1H-pyrazolo[3,4-b]pyridine-5-carbonitrile], the IC50 was found to be 0.029 µM. With `CCCn1cc(-c2cnc(-n3cnc4cc(C#N)cnc43)cc2NC2CC2)nn1` [Example 43, 3-(4-(cyclopropylamino)-5-(1-propyl-1H-1,2,3-triazol-4-yl)pyridin-2-yl)-3H-imidazo[4,5-b]pyridine-6-carbonitrile], the IC50 was 0.006 µM.

In the case of `CCCc1cn(-c2cnc(-n3ncc4cc(C#N)cnc43)cc2N[C@H](C)CO)nn1` [Example 272, (R)-1-(4-((1-hydroxypropan-2-yl)amino)-5-(4-propyl-1H-1,2,3-triazol-1-yl)pyridin-2-yl)-1H-pyrazolo[3,4-b]pyridine-5-carbonitrile], the IC50 came to 0.529 µM.

Consider `CC(C)Nc1cc(-n2ccc3cncnc32)ncc1-c1cn(Cc2cc(=O)[nH]c(=O)[nH]2)nn1` [Example 8, 6-((4-(4-(isopropylamino)-6-(7H-pyrrolo[2,3-d]pyrimidin-7-yl)pyridin-3-yl)-1H-1,2,3-triazol-1-yl)methyl)pyrimidine-2,4(1H,3H)-dione], for which the IC50 was 0.007 µM. For `CC(C)Nc1cc(-n2ncc3cc(C#N)cnc32)ncc1-c1cnn(CC(F)(F)F)c1` [Example 255, 1-(4-(isopropylamino)-5-(1-(2,2,2-trifluoroethyl)-1H-pyrazol-4-yl)pyridin-2-yl)-1H-pyrazolo[3,4-b]pyridine-5-carbonitrile] the value was 0.039 µM; for `CC(=O)N1CC(n2cnc(-c3cnc(-n4ncc5cc(C#N)cnc54)cc3NC(C)C)c2)C1` [Example 223, 1-(5-(1-(1-acetylazetidin-3-yl)-1H-imidazol-4-yl)-4-(isopropylamino)pyridin-2-yl)-1H-pyrazolo[3,4-b]pyridine-5-carbonitrile], 0.022 µM. Then `CC(C)Nc1cc(-n2ncc3cc(C#N)cnc32)ncc1-c1cn(Cc2ccccc2)cn1` [Example 230, 1-(5-(1-benzyl-1H-imidazol-4-yl)-4-(isopropylamino)pyridin-2-yl)-1H-pyrazolo[3,4-b]pyridine-5-carbonitrile], with 0.027 µM; and `CCCc1cn(-c2cnc(-n3ncc4cc(C#N)cnc43)cc2NCC(C)(C)O)nn1` [Example 287, 1-(4-((2-hydroxy-2-methylpropyl)amino)-5-(4-propyl-1H-1,2,3-triazol-1-yl)pyridin-2-yl)-1H-pyrazolo[3,4-b]pyridine-5-carbonitrile], with 0.034 µM. Then `CC(C)Nc1cc(-n2ncc3cc(C#N)cnc32)ncc1-c1cn(Cc2nc3ccccc3[nH]2)nn1` [Example 108, 1-(5-(1-((1H-benzo[d]imidazol-2-yl)methyl)-1H-1,2,3-triazol-4-yl)-4-(isopropylamino)pyridin-2-yl)-1H-pyrazolo[3,4-b]pyridine-5-carbonitrile], with 0.035 µM; and `CC(C)Nc1cc(-n2ncc3cc(C#N)cnc32)ncc1-c1cn(Cc2cccnc2)cn1` [Example 235, 1-(4-(isopropylamino)-5-(1-(pyridin-3-ylmethyl)-1H-imidazol-4-yl)pyridin-2-yl)-1H-pyrazolo[3,4-b]pyridine-5-carbonitrile], with 0.03 µM. Regarding `CC(C)Nc1cc(-n2ncc3cc(C#N)cnc32)ncc1-c1cn(CC2(O)CCN(C(=O)OC(C)(C)C)CC2)nn1` [Example 132, tert-butyl 4-((4-(6-(5-cyano-1H-pyrazolo[3,4-b]pyridin-1-yl)-4-(isopropylamino)pyridin-3-yl)-1H-1,2,3-triazol-1-yl)methyl)-4-hydroxypiperidine-1-carboxylate], the IC50 was found to be 0.051 µM. In the case of `CCOC(=O)N1CC[C@@H](n2cc(-c3cnc(-n4ncc5cc(C#N)cnc54)cc3NC(C)C)nn2)[C@@H](O)C1` [Example 189, (3S,4R)-ethyl 4-(4-(6-(5-cyano-1H-pyrazolo[3,4-b]pyridin-1-yl)-4-(isopropylamino)pyridin-3-yl)-1H-1,2,3-triazol-1-yl)-3-hydroxypiperidine-1-carboxylate], the IC50 amounted to 0.027 µM.

Take `CCC(C)(O)Cn1cc(-c2cnc(-n3cnc4cc(C#N)cnc43)cc2NC(C)C)nn1` (single isomer, unassigned) [Example 94, 3-(5-(1-(2-hydroxy-2-methylbutyl)-1H-1,2,3-triazol-4-yl)-4-(isopropylamino)pyridin-2-yl)-3H-imidazo[4,5-b]pyridine-6-carbonitrile]: the IC50 turned out to be 0.021 µM. Then `COc1cc(OC)cc(-c2cn(-c3cnc(-n4ncc5cc(C#N)cnc54)cc3NC(C)C)nn2)c1` [Example 316, 1-(5-(4-(3,5-dimethoxyphenyl)-1H-1,2,3-triazol-1-yl)-4-(isopropylamino)pyridin-2-yl)-1H-pyrazolo[3,4-b]pyridine-5-carbonitrile], with 0.244 µM; and `COC(=O)N1CC[C@@H](n2cc(-c3cnc(-n4ncc5cc(C#N)cnc54)cc3NC(C)C)nn2)[C@H](O)C1` (single isomer, unassigned) [Example 201], with 0.004 µM; and `CC(C)Nc1cc(-n2cnc3cc(C#N)cnc32)ncc1-c1cn(C(C)(C)C)nn1` [Example 23, 3-(5-(1-(tert-butyl)-1H-1,2,3-triazol-4-yl)-4-(isopropylamino)pyridin-2-yl)-3H-imidazo[4,5-b]pyridine-6-carbonitrile], with 0.096 µM. For `CC(C)Nc1cc(-n2ncc3cc(C#N)cnc32)ncc1-c1cn(C2CN(C(c3ccccc3)c3ccccc3)C2)nn1` [Example 100, 1-(5-(1-(1-benzhydrylazetidin-3-yl)-1H-1,2,3-triazol-4-yl)-4-(isopropylamino)pyridin-2-yl)-1H-pyrazolo[3,4-b]pyridine-5-carbonitrile] the value was 0.235 µM; for `CCCc1cn(-c2cnc(-n3cnc4cnc(N)nc43)cc2NC(C)C)nn1` [Example 279, 9-(4-(isopropylamino)-5-(4-propyl-1H-1,2,3-triazol-1-yl)pyridin-2-yl)-9H-purin-2-amine], 0.017 µM; for `CCCn1cc(-c2cnc(-n3ncc4cc(C#N)cnc43)cc2NC(C)C)cn1` [Example 261, 1-(4-(isopropylamino)-5-(1-propyl-1H-pyrazol-4-yl)pyridin-2-yl)-1H-pyrazolo[3,4-b]pyridine-5-carbonitrile], 0.029 µM.

In the case of `CC(C)(O)CCc1cn(-c2cnc(-n3ncc4cc(C#N)cnc43)cc2N[C@H]2CC[C@H](O)CC2)nn1` [Example 385, 1-(5-(4-(3-hydroxy-3-methylbutyl)-1H-1,2,3-triazol-1-yl)-4-(((1 s,4s)-4-hydroxycyclohexyl)amino)pyridin-2-yl)-1H-pyrazolo[3,4-b]pyridine-5-carbonitrile], the IC50 is 0.003 µM. Then `CC(C)Nc1cc(-n2ncc3cc(C#N)cnc32)ncc1-c1cnn(C(F)F)c1` [Example 260, 1-(5-(1-(difluoromethyl)-1H-pyrazol-4-yl)-4-(isopropylamino)pyridin-2-yl)-1H-pyrazolo[3,4-b]pyridine-5-carbonitrile], with 0.146 µM; and `CC(C)Nc1cc(-n2ncc3cc(C#N)cnc32)ncc1-c1cn(C[C@H](C)O)cn1` [Example 222, (S)-1-(5-(1-(2-hydroxypropyl)-1H-imidazol-4-yl)-4-(isopropylamino)pyridin-2-yl)-1H-pyrazolo[3,4-b]pyridine-5-carbonitrile], with 0.063 µM; and `COC(=O)c1ccccc1-n1cc(-c2cnc(-n3ncc4cc(C#N)cnc43)cc2NC(C)C)nn1` [Example 175, methyl 2-(4-(6-(5-cyano-1H-pyrazolo[3,4-b]pyridin-1-yl)-4-(isopropylamino)pyridin-3-yl)-1H-1,2,3-triazol-1-yl)benzoate], with 0.035 µM. For `CC(C)Nc1cc(-n2cnc3cc(C#N)cnc32)ncc1-c1cn([C@@H]2COC[C@H]2O)nn1` (single isomer, unassigned) [Example 74] the value was 0.007 µM; for `COCc1cn(-c2cnc(-n3ncc4cc(C#N)cnc43)cc2NC(C)C)nn1` [Example 267, 1-(4-(isopropylamino)-5-(4-(methoxymethyl)-1H-1,2,3-triazol-1-yl)pyridin-2-yl)-1H-pyrazolo [3,4-b]pyridine-5-carbonitrile], 0.083 µM; for `CCCn1cc(-c2cnc(-n3ncc4cc(Cl)cnc43)cc2NC2CC2)nn1` [Example 36, 2-(5-chloro-1H-pyrazolo[3,4-b]pyridin-1-yl)-N-cyclopropyl-5-(1-propyl-1H-1,2,3-triazol-4-yl)pyridin-4-amine], 0.011 µM.

As to `Cc1ccn(-c2cnc(-n3ncc4cc(C#N)cnc43)cc2NC(C)C)n1` [Example 246, 1-(4-(isopropylamino)-5-(3-methyl-1H-pyrazol-1-yl)pyridin-2-yl)-1H-pyrazolo[3,4-b] pyridine-5-carbonitrile], the IC50 was determined as 0.336 µM.

In the case of `CNC(=O)Cn1cnc(-c2cnc(-n3ncc4cc(C#N)cnc43)cc2NC(C)C)c1` [Example 238, 2-(4-(6-(5-cyano-1H-pyrazolo[3,4-b]pyridin-1-yl)-4-(isopropylamino)pyridin-3-yl)-1H-imidazol-1-yl)-N-methylacetamide], the IC50 amounted to 0.036 µM. As for `CCCc1cn(-c2cnc(-n3ncc4cc(C#N)cnc43)cc2N[C@@H](C)CO)nn1` [Example 273, (S)-1-(4-((1-hydroxypropan-2-yl)amino)-5-(4-propyl-1H-1,2,3-triazol-1-yl)pyridin-2-yl)-1H-pyrazolo[3,4-b]pyridine-5-carbonitrile], the half-maximal inhibitory concentration (IC50) worked out at 0.078 µM.
